System: eIF2-GTP-Met-tRNAi ternary complex
Test: Ternary complex assay (dual luciferase, firefly/renilla ratio) in stable KLN-tTA/pBISA-DL(ATF-4) cells; HTS and hit confirmation
Assay type: cell-based, mouse
Design: Activity 10 uM / Activity 2.5 uM / Activity 5 uM: unit not given here
Conditions: confirmed hits of the screen (Table 5); for Activity 2.5 uM: compound at 2.5 uM; for Activity 10 uM: compound at 10 uM; for Activity 5 uM: compound at 5 uM
Text: For assay development, a bi-directional plasmid was designed in which a common promoter/enhancer complex drives the transcription of firefly luciferase (F-luc) ORF fused to the 5′ untranslated region (UTR) of ATF-4, and of the renilla luciferase (R-luc) ORF fused to a 90-nucleotide 5′ UTR derived from the plasmid (FIG. 6A). Because the tetracycline-regulated transactivator ((tTA), required for driving transcription from this vector) is not normally expressed in the mammalian cells, stable KLN cancer cells were constructed that expressed tTA (KLN-tTA).
The KLN-tTA colonies that drove expression of reporter genes from pBISA-DL plasmid were selected by transient transfection and dual luciferase assay. One of these KLN-tTA cell lines was transfected with the pBISA-DL^(ATF-4) expression vector, stable colonies were selected by dual luciferase assay and expanded. To determine if reduced availability of the eIF2*GTP*Met-tRNAi ternary complex increased the translation of firefly luciferase and decreased translation of renilla luciferase, selected KLN-tTA/pBISA-DL^(AFT-4) colonies were treated with thapsigargin (TG) or tunicamycin (TU), two agents known to cause phosphorylation of eIF2α.
This assay was then adapted for high throughput screening in 96 and 384 well plates. This was done by evaluating the cell density, length of exposure to compounds, DMSO tolerance and optimum firefly and renilla substrate. We then challenged these cells with thapsigargin or DMSO. […] Cell-based assays usually have higher variation than homogeneous in vitro assays due to position effect in the plate, and other variables associated with handling of cells and the plates.
Screening was conducted in 384 well white opaque plates (Nalge Nunc), 100 μl volume RPMI+10% fetal bovine serum. Cells were plated at the sub-confluent density of 10,000 cells/well, and allowed to attach for a period of 16-18 hours at 37° C., 5% CO2. Compounds were added as 1 μl of a 1 mM DMSO stock solution for a final screening concentration of 10 μM, using low-volume tips for transfer (Molecular Bioproducts). Cells were then incubated in the presence of compound for an additional sixteen hours, again at 37° C., 5% CO2. Following incubation 70 μl of the culture medium was removed from each well to allow for reagent addition and plates were allowed to equilibrate to room temperature for thirty minutes. Firefly luciferase reporter activity was then read by the addition of thirty microliters of Dual Glo Luciferase reagent (Promega), followed by one hour incubation at room temperature to allow for adequate signal buildup. Luminescence counting was conducted on a Microbeta Trilux using a 1 second read time. Renilla luciferase reporter activity was measured following addition of 30 μl Stop and Glo Luciferase reagent (Promega) and incubation identical to the one carried out for the firefly luciferase one.
Compound scores were interpreted as firefly luciferase activity divided by renilla luciferase activity, normalized to the plate's DMSO control. […] All data analysis was conducted using the BioAssay HTS software package (CambridgeSoft).
102,709 compounds in the NCI Open Chemical Repository were then screened using this HTS assay. […] Initial hits were confirmed by repeating the same dual luciferase assay in 96 well plates. Briefly, 20,000 cells/well were plated in triplicate for each concentration (10, 5 and 2.5 μM) of the compounds.

SMILES | Activity 2.5 uM | Activity 10 uM | Activity 5 uM
OCCc1ccc(-n2cnc3c(Nc4ccc(Cl)cc4)ncnc32)cc1 [Compound 87695] | 3.28 | 4.42 | 
O=Cc1cc(CCCCCCc2ccc(O)c(C=O)c2)ccc1O [Compound 88001] |  | 21.4655 | 12
Cc1cc(N(CCCl)CCCl)ccc1CN1CCCN(Cc2ccc(N(CCCl)CCCl)cc2C)C1c1ccccc1O [Compound 88655] | 0.7 | 18.32 | 
CN(CCC(=O)/C(=C\c1ccc(Cl)cc1)c1ccccc1)Cc1ccccc1.Cl [Compound 89160] | 9.22 |  | 
ClCCN(CCCl)c1ccc(C(Cl)(c2ccc(N(CCCl)CCCl)cc2)c2ccc(N(CCCl)CCCl)cc2)cc1 [Compound 89864] |  | 10.1 | 9.4
Clc1ccccc1-c1ncc(-c2ccccc2)o1 [Compound 90299] | 2.1 | 3.21 | 
Clc1ccc(-c2ncc(-c3ccccc3)o2)c(Cl)c1 [Compound 90467] | 2.6 | 3.88 | 
Cc1cccc(-c2ncc(-c3ccccc3)o2)c1 [Compound 90777] |  | 8.406 | 6.553
CCC[N+]1=C(/C=C/c2cc(C)c3cccnc3c2O)C(C)(C)c2ccccc21 [Compound 91815] | 3.3 | 15.17 | 
CC1=C/C(=C\C=C2/N(C)c3c(C)cccc3C2(C)C)C(=O)c2ncccc21 [Compound 91816] | 17.64 | 29.75 | 
Cc1ccc(O)c(-n2nc3ccccc3n2)c1 [Compound 91885] |  | 4.473 | 3.742
O=C1c2ccccc2C(=O)c2c1ccc1c2[nH]c2ccccc21 [Compound 92938] | 3.41 | 4.68 | 
COc1ccc(-c2coc3cc(O)ccc3c2=O)cc1 [Compound 93360] |  | 10.283 | 11.08
Cc1cc2c(C)c3cccc[n+]3cc2c2ccccc12.[O-][Cl+3]([O-])([O-])[O-] [Compound 93861] |  | 3.171 | 2.622
Cc1cc(/C=N/Nc2ccc3ccccc3n2)c(O)c2ncccc12 [Compound 94029] |  | 3.2135 | 1.934
O=C(OC1CC2CC1C1CC=CC21)c1ccc([N+](=O)[O-])cc1 (stereo not shown) [Compound 94582] |  | 17.458 | 17.83
O=C(OC1CC2CC1C1CC3OC3C21)c1ccccc1 (stereo not shown) [Compound 94585] |  | 3.525 | 3.148
COc1ccc([N+](=O)[O-])c(C(OC(C)=O)OC(C)=O)c1OC(C)=O [Compound 95832] | 0.46 | 3.2 | 
ClCCN(CCCl)c1ccc(C2N(Cc3ccccc3)c3ccccc3N2Cc2ccccc2)cc1 [Compound 96306] |  | 5.7 | 2.2
CN(CCCl)c1ccc(C2N(Cc3ccccc3)c3ccccc3N2Cc2ccccc2)cc1 [Compound 96375] |  | 5.9 | 2
CN(C)c1ccc(/C=C/c2nc3ccccc3[nH]2)cc1 [Compound 96942] | 4.17 | 7.54 | 
CCCCCCCCCCCCCCCCCC[S+](C)CC.[I-] (stereo not shown) [Compound 97372] | 1.62 | 4.98 | 
Cl.Nc1cc2ccccc2c2c1ccc1ccccc12 [Compound 97681] | 1.17 | 8.98 | 
COc1ccc(C2(C)C(C#N)(C#N)C2(C#N)C#N)cc1 [Compound 98409] |  | 25.659 | 10.997
NP(Br)(c1ccccc1)(c1ccccc1)c1ccccc1 [Compound 99047] |  | 13.186 | 14.82
Oc1c(Cl)cc(Cl)cc1C1N(Cc2ccc(N(CCCl)CCCl)cc2)CCCN1Cc1ccc(N(CCCl)CCCl)cc1 [Compound 99639] | 0.7 | 8.32 | 
COc1ccc(C2=Cc3ccc(OC(C)=O)cc3OC2)cc1 [Compound 99696] |  | 3.4275 | 3.031

SMILES | Activity 2.5 uM | Activity 10 uM | Activity 5 uM
O=C(c1ccccc1)c1coc(-c2ccccc2)c1 [Compound 100239] |  | 7.6705 | 6.748
CCCCc1ccc2nc3cc4ccccc4cc3nc2c1 [Compound 100622] | 2.25 | 3.12 | 
COc1ccc(-c2cc3ccccc3[nH]2)cc1 [Compound 101082] |  | 5.896 | 4.772
Cc1ccc(-c2nc(-c3ccc(N=Cc4ccc(N(CCCl)CCCl)cc4C)cc3)cs2)cc1.Cl [Compound 101484] |  | 3.4 | 2.4
CCC(=O)Oc1c(Br)cc(C=O)cc1OC [Compound 101539] |  | 6.8175 | 14.033
C(=Nc1cnc2ccccc2c1)c1ccccn1 [Compound 101544] |  | 3.1185 | 2.767
CC(=O)OCC(OC(C)=O)C(OC(C)=O)C(/C=C/N=[N+]([O-])c1ccccc1)OC(C)=O (stereo not shown) [Compound 102003] | 0.42 | 9.46 | 
CC[CH2][Pb]([CH2]CC)([CH2]CC)[O]C(C)=O [Compound 102516] |  | 3.4 | 
CC(=O)N(C)c1ccc(/C=C2\C=Cc3ccccc32)cc1 [Compound 103749] | 2.76 | 5.25 | 
COC1=C2C=[N+](C)C3C(=C2C=CC1OC)Cc1cc2c(cc13)OCO2.O=[N+](O)O (stereo not shown) [Compound 103755] |  | 3.394 | 3.09
Ic1ccc(/C=N/Nc2nnc(N/N=C/c3ccc(I)cc3)c3ccccc23)cc1 [Compound 103842] |  | 3.3 | 2.6
O=C(Nc1cccc(Cl)c1)Nc1cc(C(F)(F)F)ccc1Cl [Compound 104498] |  | 8.4845 | 6.367
NC(=S)N/N=C\c1ncnc2ccccc12 [Compound 104959] |  | 5.474 | 5.19
O=C1C(c2c[nH]c3ccccc23)=Nc2ccc(Br)cc21 [Compound 105326] | 9.56 |  | 
Nc1ccc(N=Nc2ccccc2Cl)c(N)n1 [Compound 106208] |  | 4.3 | 1.8
Cc1ccc2nn(-c3ccc(O)cc3)nc2c1 [Compound 106291] | 2.7 | 3.15 | 
CCc1ccc(N=Nc2ccc(N(C)C)cc2)cc1 [Compound 106343] |  | 4.1 | 2.6
CCc1ccc(N=Nc2ccccc2)cc1 [Compound 106344] |  | 4.1 | 3.1
CCc1ccc(N=Nc2ccc(Br)cc2)cc1 [Compound 106378] | 2.55 | 3.69 | 
Cc1ccc(N=NC2C(=O)c3ccccc3C2=O)cc1 [Compound 106656] | 1.89 | 3.26 | 
C[C@]12CC[C@@H]3c4ccc(Oc5nc(N6CC6)nc(N6CC6)n5)cc4CC[C@H]3[C@@H]1CCC2=O [Compound 106909] |  | 3.4 | 1.2
C=CC(C)(C)c1c(OC(C)=O)cc2oc3c(OC(C)=O)c(OC(C)=O)cc(CC=C(C)C)c3c(=O)c2c1O [Compound 107229] | 1.06 | 3.14 | 
COc1cccc(N=Nc2ccc(N(C)C)cc2)c1 [Compound 108310] | 3.62 | 4.88 | 
CC(C)(C)NC/C(=C\c1ccccc1)C(=O)c1ccccc1 [Compound 109156] |  | 9.1 | 6.2
CCN(CC)CCCNc1c2ccccc2nc2ccccc12.Cl.Cl [Compound 109326] | 0.69 | 17.89 | 
Cc1cc(N(C)C)cc(C)c1C(=Nc1ccc(N=C(NO)c2c(C)cc(N(C)C)cc2C)cc1)NO.Cl [Compound 109535] |  | 6.3 | 3.9
